Measurements from PMC8224453, “A New PqsR Inverse Agonist Potentiates Tobramycin Efficacy to Eradicate Pseudomonas aeruginosa Biofilms” (Advanced Science, 2021).
Where two headings read alike, the source gives them in different places.

What was measured:
[1] = Permeability across Calu-3 monolayer; format: in vitro ADME; details: human; Calu‐3 lung epithelial cells
Method: subtraction and plotted using GraphPad Prism 8.4.2 (GraphPad Software, San Diego, CA, […]
USA). Solubility (S) was determined based on the First X value of AUC function using a […]
(§1) For the evaluation of combined phase I and phase II metabolic stability, the compound (1 μM) was incubated with 1 mg/mL pooled liver S9 fraction from the respective species (Xenotech), […]
(§2) 2 mM NADPH, 1 mM UDPGA, 10 mM MgCl2, 5 mM GSH and 0.1 mM PAPS at 37 °C for […]
(§3) 0, 5, 15, 30 or 60 min. The metabolic stability of Testosterone (1 μM) and verapamil (1 μM) […]
(§4) were determined in parallel to confirm the enzymatic activity of the S9 fraction. The […]
(§5) incubation was stopped by precipitation of S9 enzymes with 2 volumes of cold acetonitrile […]
(§6) containing internal standard (750 nM Diphenhydramine). Samples were stored on ice for 10 […]
(§7) Concentration of the remaining test compound at the different time points was analyzed by […]
Permeability of compound 4 and 17 was assessed in vitro with Calu-3 HTB-55 cell line (ATCC). […]
Pyruvate. […] TEER was monitored during the experiment and epithelial barriers were considered compromised if the TEER fell below 300 during 4 h of experiment duration. […] 50 µL of sample was mixed with 150 µL of ice-cold acetonitrile containing internal standard diphenhydramine (1 µM) and the concentration of compound was analyzed with LC-MS/MS. […]

[2] = Metabolic stability, human liver S9; format: in vitro ADME
Method: as §1, §2, §3, §4, §5, §6
min and precipitated protein was removed by centrifugation (10 min, 4 °C, 17,000 g).
as §7
LC-MS/MS (TSQ Quantum Access MAX, Thermo Fisher, Dreieich, Germany) and used to […]
determine half-life (t1/2). Stability of compound 4 in further S9 fractions are summarized in […]
Table S4. Metabolic stability studies in various S9 fractions. […]

[3] = tested on: alkylquinolones PQS and HHQ in P. aeruginosa PA14; test: Alkylquinolone inhibition assay in PA14; format: cell-based; details: Pseudomonas aeruginosa
Method: 4. Secondary Activity Assays
4.1. Alkylquinolone Inhibition Assay
The inhibitory effect of the synthesized compounds on alkylquinolone production in PA was measured as previously described with the modification that wt PA14 was used instead of PA14pqsH.[6] Briefly, P. aeruginosa PA14 cultures were grown in the presence of DMSO as a control or DMSO solutions of inhibitors for 17 h. HHQ and PQS as well as HQNO were quantified from ethyl acetate extracts using 5,6,7,8-tetradeutero-2-heptyl-4(1H)-quinolone (HHQ-d4) as internal standard (IS). LC-ESI-MS/MS analysis was performed on a Dionex […]
(1 picture or pasted object on this page, not shown here)
Scientific, Waltham MA) with the following conditions: Zorbax Eclipse XDB 80 Å C18 5 µm 4.6 x 50 mm column (Agilent, Santa Clara, CA, USA); eluent A – H2O with 0.1% trifluoroacetic acid (TFA), 0.1% pentafluoropropionic acid (PFPA), 0.1% heptafluorobutyric acid (HFBA); eluent B – acetonitrile with 0.1% TFA, 0.1% PFPA, 0.1% HFBA; isocratic 50% A; flow – 0.7 mL/min. TSQ Quantum Access Max (Thermo Fisher Scientific, Waltham, MA, USA) instrument parameters: Spray voltage 3500 V, vaporizer temperature 370 °C, sheath gas pressure 35 psi, aux gas pressure 30 psi, capillary temperature 270 °C, collision pressure 1.5 mTorr, positive ionization mode. For AQ analyte reaction monitoring parameters […]
Data acquisition and quantification was performed using Xcalibur software with the use of a calibration curve relative to the area of the IS. IC50 values were calculated according to the procedure of the pyocyanin assay (see above).
Table S1: LC-ESI-MS/MS reaction monitoring parameters of AQ analytes in positive ionization mode. precursor product collision tube lens retention ion m/z ion m/z energy (V) offset (V) time (min)
Chemical and biological materials for in vitro assays: All chemicals were purchased from Sigma-Aldrich unless otherwise specified. Yeast extract was obtained from Fluka. Bacto™ Tryptone were obtained from BD Biosciences. Luria Bertani (LB) agar was obtained from Carl Roth. Gibco® PBS was obtained from Life Te chnologies. Purified water was prepared by a Milli-Q water purification system (Merk Millipore, Billerica, MA). The PA strain PA14 wild type (PA14 wt) was purchased from DSMZ, the German Collection of Microorganism and Cell Cultures GmbH (PA14 = DSMZ19882) and cultured in minimal proteose peptone glucose ammonium salt (PPGAS) medium. PPGAS was composed of 1 g/L NH4Cl, 1.5 g/L KCl, 19 g/L Tris-HCl, 10 g/L peptone, 5 g/L glucose and 0.1 g/L MgSO4∙7H2O. The pH value of the medium was adjusted to 7.2 ± 0.2 and sterilized before use. Agar solution was […]

[4] = pooled human liver S9 fraction, Table 2, read-out: Metabolic stability t 1/2 S9 human

| SMILES | Papp at 4 h [1] [×10⁻⁶ cm/s] | half-life at 1 μM [2, 4] [h] | half-life at 1 μM ([2]; pooled liver S9 fraction, Table S4, read-out: t1/2 human liver S9) [h] | IC50 ([3]; PA14, read-out: IC50(HHQ)) [nM] | IC50 ([3]; PA14, read-out: IC50(PQS)) [nM] |
| --- | --- | --- | --- | --- | --- |
| FC(F)(F)c1cc(NCc2cn(-c3ccc(Oc4ccccc4)cc3)nn2)ccn1 [Compound 4] | 5.3 | 2.82 | 1.13 ± 0.15 | 370 ± 70 | 1130 |
| COc1ccc(-n2cc(CNc3ccnc(C(F)(F)F)c3)nn2)cc1Cl [Compound 17] | 11.4 | 0.7 |  | 1320 ± 390 | 2080 ± 370 |
